Values joined by “and” are separate entries in the source; they are usually repeats but may differ in a detail not shown here. Equal values may be shown once. Read-outs that look alike come from different tables or passages of the source.
Assays:
in vitro [1] = conditions: human, HEK293T WT Cell viability (% of controll), dose–response, individual replicates
Method: (§1) Primary fibroblast cultures were prepared from human skin biopsies and maintained in DMEM supplemented with 10% FBS, 1% penicillin-streptomycin, and 1% MEM Non-Essential Amino Acids Solution (Thermo Fisher Scientific). […] All cell lines were cultured in a humidified atmosphere at 37 °C and 5% CO2, passaged twice a week, and the experiments were performed on cells between passage 5 and 15. The cell lines were routinely screened for the absence of mycoplasma infection (DAPI staining).
(§2) The effects of the synthesized compounds on cell viability were measured using the CellTiter-Glo® luminescent cell viability assay (Promega, Madison, WI, USA), according to the manufacturer’s instructions. Briefly, cells were seeded onto a flat-bottomed, white 96-well plate (BRANDplates, cat. no.: 781965)), with the following densities: PANC-1: 750 cells/well, Fadu: 2000 cells/well, primary fibroblasts: 2000 cells/well, HEK293T WT: 1000 cells/well, HEK293T CLPP^−/−: 2500 cells/well. After seeding, cells were incubated for a further 48 h before treatment. Cells were treated with the compounds for 72 h. Three concentrations (25.0 µM; 8.3 µM; 2.8 µM) were applied during the initial cell viability screening, while for the determination of dose–response curves, 1.5-fold serially diluted compound concentrations were applied (range: 26 µM–0.7 µM). After treatment, the luminescence signal was recorded using a microplate reader (BioTek Synergy 2 Multi-Mode Reader, BioTek, Winooski, VT, USA).
(§3) Data analysis was performed using GraphPad Prism 9.5.0 software (GraphPad Software, San Diego, CA, USA). […] The dose–response curves were generated by four-parameter nonlinear regression, and the IC50 values were determined as the means ± SEM of the best-fit values of 3 independent measurements. The R^2 values were consistently above 0.93, indicating a strong fit of the model to the experimental data (Supplementary S.89). […] Dunnett’s post hoc test was applied to adjust for multiple comparisons, minimizing the likelihood of false positive results. Assumptions for ANOVA, including normality (assessed via QQ plots) and homogeneity of variance (tested using the Brown–Forsythe test), were verified. The following significance levels were applied: * p < 0.05, ** p < 0.01, *** p < 0.001, **** p < 0.0001. […] The tumor selectivity of the compounds was quantitatively characterized by the selectivity index (SI). This parameter was calculated as the ratio of the average best-fit IC50 value for primary fibroblasts and the best-fit IC50 value for the corresponding tumor cells (PANC-1 or Fadu).

in vitro [2] = conditions: human, fibroblast viability in the tested concentration range, dose–response range 26–0.7 µM
HEK293T WT cells = assay: CellTiter-Glo cell viability assay, HEK293T WT; conditions: for HEK293T WT Cell viability (% of controll): dose–response, individual replicates
Method: as §1, §2, §3

PANC-1 cells = assay: CellTiter-Glo luminescent cell viability assay, PANC-1; conditions: for viability at 2.8 µM: read-out: Cell Viability (% of Control) 2.8 µM, PANC-1; for viability at 2.8 µM / viability at 8.3 µM / viability at 25 µM: mean ± SD, n = 2; for viability at 8.3 µM: read-out: Cell Viability (% of Control) 8.3 µM, PANC-1; for viability at 25 µM: read-out: Cell Viability (% of Control) 25 µM, PANC-1
Fadu cells = assay: CellTiter-Glo luminescent cell viability assay, Fadu; conditions: for viability at 2.8 µM: read-out: Cell Viability (% of Control) 2.8 µM, Fadu; for viability at 2.8 µM / viability at 8.3 µM / viability at 25 µM: mean ± SD, n = 2; for viability at 8.3 µM: read-out: Cell Viability (% of Control) 8.3 µM, Fadu; for viability at 25 µM: read-out: Cell Viability (% of Control) 25 µM, Fadu
[3] = 0.7 μM, 72 h, dose–response, individual replicates
[4] = 1 μM, 72 h, dose–response, individual replicates
[5] = 1.5 μM, 72 h, dose–response, individual replicates
[6] = 2.3 μM, 72 h, dose–response, individual replicates
[7] = 3.4 μM, 72 h, dose–response, individual replicates
[8] = 5.1 μM, 72 h, dose–response, individual replicates
[9] = 7.7 μM, 72 h, dose–response, individual replicates
[10] = 17.3 μM, 72 h, dose–response, individual replicates
[11] = 26 μM, 72 h, dose–response, individual replicates
[12] = Homo sapiens, PANC-1, 72 h, 72 h, first-set screening
[13] = Homo sapiens, PANC-1, 72 h, 72 h, second-set screening
[14] = Homo sapiens, FaDu, 72 h, 72 h, first-set screening
[15] = Homo sapiens, FaDu, 72 h, 72 h, second-set screening

Cc1ccccc1CN1C(=O)C2=C(CCN(Cc3ccccc3)C2)N2CCN=C12 [ONC201, reference compound]
viability at 72 h, 0.6 µM (in vitro [1]; 0.6 μM): 60%
viability at 72 h, 1 µM (in vitro [1]; 1.0 μM): 30%
viability at 72 h, 1.6 µM (in vitro [1]; 1.6 μM): 28%
viability at 72 h, 2.5 µM (in vitro [1]; 2.5 μM): 21%
viability at 72 h, 4 µM (in vitro [1]; 4.0 μM): 19%
viability at 72 h, 6.4 µM (in vitro [1]; 6.4 μM): 18%
viability at 72 h, 16.25 µM (in vitro [1]; 16.25 μM): 15%
viability at 72 h, 26 µM (in vitro [1]; 26 μM): 15%
viability at 72 h (in vitro [2]): > 50%
HEK293T WT Cell viability (% of controll) (HEK293T WT cells; 0.4 μM, 72 h): 105 % of controll and 96 % of controll and 95 % of controll
HEK293T WT Cell viability (% of controll) (HEK293T WT cells; 0.6 μM, 72 h): 70 % of controll and 65 % of controll and 68 % of controll
HEK293T WT Cell viability (% of controll) (HEK293T WT cells; 1.0 μM, 72 h): 32 % of controll and 31 % of controll
HEK293T WT Cell viability (% of controll) (HEK293T WT cells; 1.6 μM, 72 h): 25 % of controll and 29 % of controll
HEK293T WT Cell viability (% of controll) (HEK293T WT cells; 2.5 μM, 72 h): 19 % of controll and 22 % of controll and 23 % of controll
HEK293T WT Cell viability (% of controll) (HEK293T WT cells; 4.0 μM, 72 h): 19 % of controll and 22 % of controll and 20 % of controll
HEK293T WT Cell viability (% of controll) (HEK293T WT cells; 6.4 μM, 72 h): 19 % of controll and 22 % of controll and 20 % of controll
HEK293T WT Cell viability (% of controll) (HEK293T WT cells; 16.25 μM, 72 h): 18 % of controll and 19 % of controll
HEK293T WT Cell viability (% of controll) (HEK293T WT cells; 26 μM, 72 h): 15 % of controll and 16 % of controll and 18 % of controll
IC50 (HEK293T WT cells; Homo sapiens, HEK-293T, 72 h, read-out: IC50 (µM) HEK293T WT, 72 h treatment, ± SEM, best-fit values, n = 4): 0.6 ± 0.03 µM
IC50 (HEK293T WT cells; Homo sapiens, HEK-293T, read-out: HEK293T WT IC50 values, Mean, mean of independently fitted replicate IC50 values (Supplement S.6)): 0.56 µM
IC50 (HEK293T WT cells; Homo sapiens, HEK-293T, read-out: HEK293T WT IC50 values, individual replicates n1-n4, IC50 independently determined for each replicate measurement (Supplement S.6)): 0.394 µM
IC50 (HEK293T WT cells; read-out: HEK293T WT IC50 values, individual replicates n1-n4, IC50 independently determined for each replicate measurement (Supplement S.6)): 0.626 µM and 0.558 µM and 0.643 µM
PANC-1 Cell viability (% of controll) (PANC-1 cells; [3]): 92 % of controll and 97 % of controll
PANC-1 Cell viability (% of controll) (PANC-1 cells; [4]): 102 % of controll and 101 % of controll
PANC-1 Cell viability (% of controll) (PANC-1 cells; [5]): 86 % of controll and 101 % of controll
PANC-1 Cell viability (% of controll) (PANC-1 cells; [6]): 78 % of controll and 84 % of controll
PANC-1 Cell viability (% of controll) (PANC-1 cells; [7]): 57 % of controll and 60 % of controll
PANC-1 Cell viability (% of controll) (PANC-1 cells; [8]): 51 % of controll and 54 % of controll
PANC-1 Cell viability (% of controll) (PANC-1 cells; [9]): 43 % of controll and 48 % of controll
PANC-1 Cell viability (% of controll) (PANC-1 cells; [10]): 37 % of controll and 35 % of controll
PANC-1 Cell viability (% of controll) (PANC-1 cells; [11]): 32 % of controll and 29 % of controll
viability at 2.8 µM (PANC-1 cells; [12]): 69 ± 1%
viability at 2.8 µM (PANC-1 cells; [13]): 59 ± 9%
viability at 8.3 µM (PANC-1 cells; [12]): 58 ± 1%
viability at 8.3 µM (PANC-1 cells; [13]): 35 ± 2%
viability at 25 µM (PANC-1 cells; [12]): 53 ± 2%
viability at 25 µM (PANC-1 cells; [13]): 22 ± 2%
IC50 (PANC-1 cells; Homo sapiens, PANC-1, 72 h, read-out: IC50 Value ± SEM PANC-1, 72 h treatment, best-fit values, n = 3): 3.1 ± 0.26 µM
viability at 0.7 µM (PANC-1 cells; Homo sapiens, PANC-1, 72 h, read-out: PANC-1 Cell viability (% of controll), 0.7 μM, 72 h, dose–response, individual replicates): 90%
viability at 1 µM (PANC-1 cells; Homo sapiens, PANC-1, 72 h, read-out: PANC-1 Cell viability (% of controll), 1 μM, 72 h, dose–response, individual replicates): 94%
viability at 1.5 µM (PANC-1 cells; Homo sapiens, PANC-1, 72 h, read-out: PANC-1 Cell viability (% of controll), 1.5 μM, 72 h, dose–response, individual replicates): 85%
viability at 2.3 µM (PANC-1 cells; Homo sapiens, PANC-1, 72 h, read-out: PANC-1 Cell viability (% of controll), 2.3 μM, 72 h, dose–response, individual replicates): 72%
viability at 3.4 µM (PANC-1 cells; Homo sapiens, PANC-1, 72 h, read-out: PANC-1 Cell viability (% of controll), 3.4 μM, 72 h, dose–response, individual replicates): 64%
viability at 5.1 µM (PANC-1 cells; Homo sapiens, PANC-1, 72 h, read-out: PANC-1 Cell viability (% of controll), 5.1 μM, 72 h, dose–response, individual replicates): 49%
viability at 7.7 µM (PANC-1 cells; Homo sapiens, PANC-1, 72 h, read-out: PANC-1 Cell viability (% of controll), 7.7 μM, 72 h, dose–response, individual replicates): 46%
viability at 17.3 µM (PANC-1 cells; Homo sapiens, PANC-1, 72 h, read-out: PANC-1 Cell viability (% of controll), 17.3 μM, 72 h, dose–response, individual replicates): 34%
viability at 26 µM (PANC-1 cells; Homo sapiens, PANC-1, 72 h, read-out: PANC-1 Cell viability (% of controll), 26 μM, 72 h, dose–response, individual replicates): 33%
IC50 (PANC-1 cells; Homo sapiens, PANC-1, read-out: PANC-1 IC50 values, Mean, mean of independently fitted replicate IC50 values (Supplement S.6)): 3.05 µM
IC50 (PANC-1 cells; Homo sapiens, PANC-1, read-out: PANC-1 IC50 values, individual replicates n1-n3, IC50 independently determined for each replicate measurement (Supplement S.6)): 3.22 µM
IC50 (PANC-1 cells; read-out: PANC-1 IC50 values, individual replicates n1-n3, IC50 independently determined for each replicate measurement (Supplement S.6)): 3.14 µM and 2.78 µM
Fadu Cell viability (% of controll) (Fadu cells; [3]): 93 % of controll
Fadu Cell viability (% of controll) (Fadu cells; [4]): 86 % of controll and 77 % of controll
Fadu Cell viability (% of controll) (Fadu cells; [5]): 59 % of controll and 51 % of controll
Fadu Cell viability (% of controll) (Fadu cells; [6]): 55 % of controll and 30 % of controll
Fadu Cell viability (% of controll) (Fadu cells; [7]): 26 % of controll
Fadu Cell viability (% of controll) (Fadu cells; [8]): 26 % of controll
Fadu Cell viability (% of controll) (Fadu cells; [9]): 28 % of controll and 27 % of controll
Fadu Cell viability (% of controll) (Fadu cells; [10]): 23 % of controll and 24 % of controll
Fadu Cell viability (% of controll) (Fadu cells; [11]): 22 % of controll and 24 % of controll
viability at 2.8 µM (Fadu cells; [14]): 31 ± 1%
viability at 2.8 µM (Fadu cells; [15]): 38 ± 5%
viability at 8.3 µM (Fadu cells; [14]): 29 ± 1%
viability at 8.3 µM (Fadu cells; [15]): 31 ± 2%
viability at 25 µM (Fadu cells; [14]): 27 ± 1%
viability at 25 µM (Fadu cells; [15]): 25 ± 3%
viability at 0.7 µM (Fadu cells; Homo sapiens, FaDu, 72 h, read-out: Fadu Cell viability (% of controll), 0.7 μM, 72 h, dose–response, individual replicates): 94%
viability at 1 µM (Fadu cells; Homo sapiens, FaDu, 72 h, read-out: Fadu Cell viability (% of controll), 1 μM, 72 h, dose–response, individual replicates): 85%
viability at 1.5 µM (Fadu cells; Homo sapiens, FaDu, 72 h, read-out: Fadu Cell viability (% of controll), 1.5 μM, 72 h, dose–response, individual replicates): 66%
viability at 3.4 µM (Fadu cells; Homo sapiens, FaDu, 72 h, read-out: Fadu Cell viability (% of controll), 3.4 μM, 72 h, dose–response, individual replicates): 40%
viability at 5.1 µM (Fadu cells; Homo sapiens, FaDu, 72 h, read-out: Fadu Cell viability (% of controll), 5.1 μM, 72 h, dose–response, individual replicates): 39%
viability at 7.7 µM (Fadu cells; Homo sapiens, FaDu, 72 h, read-out: Fadu Cell viability (% of controll), 7.7 μM, 72 h, dose–response, individual replicates): 38%
viability at 17.3 µM (Fadu cells; Homo sapiens, FaDu, 72 h, read-out: Fadu Cell viability (% of controll), 17.3 μM, 72 h, dose–response, individual replicates): 33%
viability at 26 µM (Fadu cells; Homo sapiens, FaDu, 72 h, read-out: Fadu Cell viability (% of controll), 26 μM, 72 h, dose–response, individual replicates): 31%
IC50 (Fadu cells; Homo sapiens, FaDu, 72 h, read-out: IC50 Value ± SEM Fadu, 72 h treatment, best-fit values, n = 3): 1300 ± 150 nM
IC50 (Fadu cells; Homo sapiens, FaDu, read-out: Fadu IC50 values, Mean, mean of independently fitted replicate IC50 values (Supplement S.6)): 1340 nM
IC50 (Fadu cells; Homo sapiens, FaDu, read-out: Fadu IC50 values, individual replicates n1-n3, IC50 independently determined for each replicate measurement (Supplement S.6)): 1350 nM
IC50 (Fadu cells; read-out: Fadu IC50 values, individual replicates n1-n3, IC50 independently determined for each replicate measurement (Supplement S.6)): 1410 nM and 1260 nM

Source: publication PMC11642016 (International Journal of Molecular Sciences, 2024)
